In US8778871B2 (Takeda Pharmaceutical Company Limited, priority 2004, dated 2014):
Non-standard residues stand in square brackets, D forms with d. Residues, ends and D or L forms follow the SMILES beside them. Phe(3-Cl) = N[C@@H](Cc1cccc(Cl)c1)C(=O)O; Phe(4-Cl) = N[C@@H](Cc1ccc(Cl)cc1)C(=O)O; Phe(2-Cl) = N[C@@H](Cc1ccccc1Cl)C(=O)O; 1Nal = N[C@@H](Cc1cccc2ccccc12)C(=O)O; 2Nal = N[C@@H](Cc1ccc2ccccc2c1)C(=O)O; Arg(Me) = CNC(=N)NCCC[C@H](N)C(=O)O; azaGly = NNC(=O)O

Biological target: T1, hOT7T175 (Homo sapiens, UniProt Q969F8, L364H)
T1 construct: expressed in transfected cells
T1 sequence (Q969F8 whole entry L364H): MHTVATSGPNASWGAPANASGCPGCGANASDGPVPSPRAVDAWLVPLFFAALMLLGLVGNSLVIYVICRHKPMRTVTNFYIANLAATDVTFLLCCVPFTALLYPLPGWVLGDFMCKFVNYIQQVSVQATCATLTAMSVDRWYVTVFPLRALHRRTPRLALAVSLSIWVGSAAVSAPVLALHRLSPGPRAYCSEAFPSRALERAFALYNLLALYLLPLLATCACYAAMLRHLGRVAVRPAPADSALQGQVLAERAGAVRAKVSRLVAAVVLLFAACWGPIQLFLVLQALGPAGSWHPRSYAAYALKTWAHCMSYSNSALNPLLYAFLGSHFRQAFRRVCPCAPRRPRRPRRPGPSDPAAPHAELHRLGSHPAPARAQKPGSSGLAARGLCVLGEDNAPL
Test: Intracellular Ca ion level-increasing activity using FLIPR (180 seconds; specific activity to Metastin (1-54))
Assay type: cell-based
Settings: hOT7T175/CHO, relative to Metastin (1-54) = 1

Row | Structure (SMILES) | Specific Act. (intracellular Ca ion level-increasing activity, specific activity to Metastin (1-54))
1 | CNC(=N)NCCC[C@H](NC(=O)[C@H](CC(C)C)NC(=O)CNC(=O)[C@H](Cc1ccccc1)NC(=O)[C@H](CO)NC(=O)[C@H](CC(N)=O)NC(=O)[C@@H](Cc1c[nH]c2ccccc12)NC(=O)[C@H](N)Cc1ccc(O)cc1)C(=O)N[C@@H](Cc1ccccc1)C(N)=O [Compound No. 224, D-Tyr-D-Trp-Asn-Ser-Phe-Gly-Leu-Arg(Me)-Phe-NH2] (H-[dY][dW]NSFGL[Arg(Me)]F-NH2) | 2
2 | CNC(=N)NCCC[C@H](NC(=O)[C@H](CC(C)C)NC(=O)CNC(=O)[C@H](Cc1ccccc1)NC(=O)[C@H](CO)NC(=O)[C@H](CC(N)=O)NC(=O)[C@@H](Cc1c[nH]c2ccccc12)NC(=O)[C@H](N)CC(N)=O)C(=O)N[C@@H](Cc1ccccc1)C(N)=O [Compound No. 225, D-Asn-D-Trp-Asn-Ser-Phe-Gly-Leu-Arg(Me)-Phe-NH2] (H-[dN][dW]NSFGL[Arg(Me)]F-NH2) | 1
3 | CNC(=N)NCCC[C@H](NC(=O)[C@H](CC(C)C)NC(=O)CNC(=O)[C@H](Cc1ccccc1)NC(=O)[C@H](CO)NC(=O)[C@H](CC(N)=O)NC(=O)[C@H](CO)NC(=O)[C@H](N)Cc1ccc(O)cc1)C(=O)N[C@@H](Cc1ccccc1)C(N)=O [Compound No. 226] (H-[dY]SNSFGL[Arg(Me)]F-NH2) | 1
4 | CNC(=N)NCCC[C@H](NC(=O)[C@H](CC(C)C)NC(=O)CNC(=O)[C@H](Cc1ccccc1)NC(=O)[C@H](CO)NC(=O)[C@H](CC(N)=O)NC(=O)[C@@H](NC(=O)[C@H](N)Cc1ccc(O)cc1)[C@@H](C)O)C(=O)N[C@@H](Cc1ccccc1)C(N)=O [Compound No. 227] (H-[dY]TNSFGL[Arg(Me)]F-NH2) | 1
5 | CC[C@H](C)[C@H](NC(=O)[C@H](N)Cc1ccc(O)cc1)C(=O)N[C@@H](CC(N)=O)C(=O)N[C@@H](CO)C(=O)N[C@@H](Cc1ccccc1)C(=O)NCC(=O)N[C@@H](CC(C)C)C(=O)N[C@@H](CCCNC(=N)NC)C(=O)N[C@@H](Cc1ccccc1)C(N)=O [Compound No. 228] (H-[dY]INSFGL[Arg(Me)]F-NH2) | 5
6 | CNC(=N)NCCC[C@H](NC(=O)[C@H](CC(C)C)NC(=O)CNC(=O)[C@H](Cc1ccccc1)NC(=O)[C@H](CO)NC(=O)[C@H](CC(N)=O)NC(=O)[C@@H](NC(=O)[C@H](CC(N)=O)NC(=O)[C@H](N)Cc1ccc(O)cc1)C(C)C)C(=O)N[C@@H](Cc1ccccc1)C(N)=O [Compound No. 229] (H-[dY]NVNSFGL[Arg(Me)]F-NH2) | 1
7 | CNC(=N)NCCC[C@H](NC(=O)[C@H](CC(C)C)NC(=O)CNC(=O)[C@H](Cc1ccccc1)NC(=O)[C@H](CO)NC(=O)[C@H](CC(N)=O)NC(=O)[C@H](Cc1c[nH]c2ccccc12)NC(=O)[C@@H](CC(N)=O)NC(=O)[C@H](N)Cc1ccc(O)cc1)C(=O)N[C@@H](Cc1ccccc1)C(N)=O [Compound No. 230] | 10
8 | CNC(=N)NCCC[C@H](NC(=O)[C@H](CC(C)C)NC(=O)CNC(=O)[C@H](Cc1ccccc1)NC(=O)[C@H](CO)NC(=O)[C@H](CC(N)=O)NC(=O)[C@@H](Cc1c[nH]c2ccccc12)NC(=O)[C@@H](CC(N)=O)NC(=O)[C@H](N)Cc1ccc(O)cc1)C(=O)N[C@@H](Cc1ccccc1)C(N)=O [Compound No. 231, D-Tyr-D-Asn-D-Trp-Asn-Ser-Phe-Gly-Leu-Arg(Me)-Phe-NH2] | 1
9 | CC[C@H](C)[C@H](NC(=O)[C@H](CC(N)=O)NC(=O)[C@H](N)Cc1ccc(O)cc1)C(=O)N[C@@H](CC(N)=O)C(=O)N[C@@H](CO)C(=O)N[C@@H](Cc1ccccc1)C(=O)NNC(=O)N[C@@H](CC(C)C)C(=O)N[C@@H](CCCNC(=N)NC)C(=O)N[C@@H](Cc1ccccc1)C(N)=O [Compound No. 233, D-Tyr-Asn-Ile-Asn-Ser-Phe-AzaGly-Leu-Arg(Me)-Phe-NH2] (H-[dY]NINSF[azaGly]L[Arg(Me)]F-NH2) | 1
10 | CNC(=N)NCCC[C@H](NC(=O)[C@H](CC(C)C)NC(=O)NNC(=O)[C@H](Cc1ccccc1)NC(=O)[C@H](CO)NC(=O)[C@H](CC(N)=O)NC(=O)[C@@H](NC(=O)[C@H](CC(N)=O)NC(=O)[C@H](N)Cc1ccc(O)cc1)C(C)C)C(=O)N[C@@H](Cc1ccccc1)C(N)=O [Compound No. 234, D-Tyr-Asn-Val-Asn-Ser-Phe-AzaGly-Leu-Arg(Me)-Phe-NH2] (H-[dY]NVNSF[azaGly]L[Arg(Me)]F-NH2) | 1
11 | CNC(=N)NCCC[C@H](NC(=O)[C@H](CC(C)C)NC(=O)NNC(=O)[C@H](Cc1ccccc1)NC(=O)[C@H](CO)NC(=O)[C@H](CC(N)=O)NC(=O)[C@H](C)NC(=O)[C@H](CC(N)=O)NC(=O)[C@H](N)Cc1ccc(O)cc1)C(=O)N[C@@H](Cc1ccccc1)C(N)=O [Compound No. 235, D-Tyr-Asn-Ala-Asn-Ser-Phe-AzaGly-Leu-Arg(Me)-Phe-NH2] (H-[dY]NANSF[azaGly]L[Arg(Me)]F-NH2) | 1
12 | CNC(=N)NCCC[C@H](NC(=O)[C@H](CC(C)C)NC(=O)NNC(=O)[C@H](Cc1ccccc1)NC(=O)[C@H](CO)NC(=O)[C@H](CC(N)=O)NC(=O)[C@@H](Cc1c[nH]c2ccccc12)NC(=O)[C@H](CC(N)=O)NC(=O)[C@H](N)Cc1ccc(O)cc1)C(=O)N[C@@H](Cc1ccccc1)C(N)=O [Compound No. 236, D-Tyr-Asn-D-Trp-Asn-Ser-Phe-AzaGly-Leu-Arg(Me)-Phe-NH2] | 2
13 | CNC(=N)NCCC[C@H](NC(=O)[C@H](CC(C)C)NC(=O)NNC(=O)[C@H](Cc1ccccc1)NC(=O)[C@H](CO)NC(=O)[C@H](CC(N)=O)NC(=O)[C@H](Cc1c[nH]c2ccccc12)NC(=O)[C@@H](CC(N)=O)NC(=O)[C@H](N)Cc1ccc(O)cc1)C(=O)N[C@@H](Cc1ccccc1)C(N)=O [Compound No. 237, D-Tyr-D-Asn-Trp-Asn-Ser-Phe-AzaGly-Leu-Arg(Me)-Phe-NH2] | 3
14 | CNC(=N)NCCC[C@H](NC(=O)[C@H](CC(C)C)NC(=O)NNC(=O)[C@H](Cc1ccccc1)NC(=O)[C@H](CO)NC(=O)[C@H](CC(N)=O)NC(=O)[C@@H](Cc1c[nH]c2ccccc12)NC(=O)[C@@H](CC(N)=O)NC(=O)[C@H](N)Cc1ccc(O)cc1)C(=O)N[C@@H](Cc1ccccc1)C(N)=O [Compound No. 238, D-Tyr-D-Asn-D-Trp-Asn-Ser-Phe-AzaGly-Leu-Arg(Me)-Phe-NH2] | 1
15 | CNC(=N)NCCC[C@H](NC(=O)[C@H](CC(C)C)NC(=O)NNC(=O)[C@H](Cc1ccccc1)NC(=O)[C@H](CO)NC(=O)[C@H](CC(N)=O)NC(=O)[C@H](Cc1ccccc1)NC(=O)[C@H](CC(N)=O)NC(=O)[C@H](N)Cc1ccc(O)cc1)C(=O)N[C@@H](Cc1ccccc1)C(N)=O [Compound No. 244, D-Tyr-Asn-Phe-Asn-Ser-Phe-AzaGly-Leu-Arg(Me)-Phe-NH2] (H-[dY]NFNSF[azaGly]L[Arg(Me)]F-NH2) | 1
16 | CNC(=N)NCCC[C@H](NC(=O)[C@H](CC(C)C)NC(=O)NNC(=O)[C@H](Cc1ccccc1)NC(=O)[C@H](CO)NC(=O)[C@H](CC(N)=O)NC(=O)[C@H](Cc1cccc2ccccc12)NC(=O)[C@H](CC(N)=O)NC(=O)[C@H](N)Cc1ccc(O)cc1)C(=O)N[C@@H](Cc1ccccc1)C(N)=O [Compound No. 245, D-Tyr-Asn-Nal(1)-Asn-Ser-Phe-AzaGly-Leu-Arg(Me)-Phe-NH2] (H-[dY]N[1Nal]NSF[azaGly]L[Arg(Me)]F-NH2) | 1
17 | CNC(=N)NCCC[C@H](NC(=O)[C@H](CC(C)C)NC(=O)NNC(=O)[C@H](Cc1ccccc1)NC(=O)[C@H](CO)NC(=O)[C@H](CC(N)=O)NC(=O)[C@H](Cc1ccc2ccccc2c1)NC(=O)[C@H](CC(N)=O)NC(=O)[C@H](N)Cc1ccc(O)cc1)C(=O)N[C@@H](Cc1ccccc1)C(N)=O [Compound No. 246, D-Tyr-Asn-Nal(2)-Asn-Ser-Phe-AzaGly-Leu-Arg(Me)-Phe-NH2] (H-[dY]N[2Nal]NSF[azaGly]L[Arg(Me)]F-NH2) | 2
18 | CNC(=N)NCCC[C@H](NC(=O)[C@H](CC(C)C)NC(=O)NNC(=O)[C@H](Cc1ccccc1)NC(=O)[C@H](CO)NC(=O)[C@H](CC(N)=O)NC(=O)[C@H](Cc1ccccc1Cl)NC(=O)[C@H](CC(N)=O)NC(=O)[C@H](N)Cc1ccc(O)cc1)C(=O)N[C@@H](Cc1ccccc1)C(N)=O [Compound No. 247, D-Tyr-Asn-Phe(2Cl)-Asn-Ser-Phe-AzaGly-Leu-Arg(Me)-Phe-NH2] (H-[dY]N[Phe(2-Cl)]NSF[azaGly]L[Arg(Me)]F-NH2) | 1
19 | CNC(=N)NCCC[C@H](NC(=O)[C@H](CC(C)C)NC(=O)NNC(=O)[C@H](Cc1ccccc1)NC(=O)[C@H](CO)NC(=O)[C@H](CC(N)=O)NC(=O)[C@H](Cc1cccc(Cl)c1)NC(=O)[C@H](CC(N)=O)NC(=O)[C@H](N)Cc1ccc(O)cc1)C(=O)N[C@@H](Cc1ccccc1)C(N)=O [Compound No. 248, D-Tyr-Asn-Phe(3Cl)-Asn-Ser-Phe-AzaGly-Leu-Arg(Me)-Phe-NH2] (H-[dY]N[Phe(3-Cl)]NSF[azaGly]L[Arg(Me)]F-NH2) | 2
20 | CNC(=N)NCCC[C@H](NC(=O)[C@H](CC(C)C)NC(=O)NNC(=O)[C@H](Cc1ccccc1)NC(=O)[C@H](CO)NC(=O)[C@H](CC(N)=O)NC(=O)[C@H](Cc1ccc(Cl)cc1)NC(=O)[C@H](CC(N)=O)NC(=O)[C@H](N)Cc1ccc(O)cc1)C(=O)N[C@@H](Cc1ccccc1)C(N)=O [Compound No. 249, D-Tyr-Asn-Phe(4Cl)-Asn-Ser-Phe-AzaGly-Leu-Arg(Me)-Phe-NH2] (H-[dY]N[Phe(4-Cl)]NSF[azaGly]L[Arg(Me)]F-NH2) | 1
